Experimental data as given in ChEMBL document CHEMBL2069257, “A fluorescent reporter of ATP binding-competent receptor kinases” (Bioorg Med Chem Lett, 2012).
The source made the active and inactive calls. The rule behind the calls is not given here.

Key:
[1] = target: Proto-oncogene tyrosine-protein kinase Src (Homo sapiens) (UniProt P12931); assay: Inhibition of SRC using biotinylated HNRNPK as substrate at 0.2 to 6 uM by blotting method
[2] = target: T1, Receptor tyrosine-protein kinase erbB-2 (Homo sapiens, UniProt P04626); assay: Inhibition of ERBB2 autophosphorylation Tyr 1139 residue in human BT474 cells at 2 to 14 uM after 12 hrs by Western blotting
[3] = target: T1, Receptor tyrosine-protein kinase erbB-2; assay: Inhibition of full-length/His-tagged ERBB2 overexpressed in human MCF7 cells assessed as inhibition of AKT phosphorylation at 0.2 to 6 uM after 12 hrs by Western blot analysis; type: cell-based
[4] = target: T1, Receptor tyrosine-protein kinase erbB-2; assay: Inhibition of truncated soluble ERBB2 expressed in human MCF7 cell lysate at 1 to 10 uM after mCherry fluorescence assay pretreated with canertinib before lysis; type: cell-based
[5] = target: T1, Receptor tyrosine-protein kinase erbB-2; assay: Inhibition of truncated soluble ERBB2 expressed in human MCF7 cell lysate at 1 to 10 uM after mCherry fluorescence assay; type: cell-free
[6] = target: Proto-oncogene tyrosine-protein kinase Src (Homo sapiens) (UniProt P12931); assay: Inhibition of SRC using biotinylated HNRNPK as substrate up to 6 uM by blotting method
[7] = target: T1, Receptor tyrosine-protein kinase erbB-2; assay: Binding affinity to full-length/His-tagged ERBB2 UV-vis emission spectroscopy

T1 sequence (P04626 whole entry): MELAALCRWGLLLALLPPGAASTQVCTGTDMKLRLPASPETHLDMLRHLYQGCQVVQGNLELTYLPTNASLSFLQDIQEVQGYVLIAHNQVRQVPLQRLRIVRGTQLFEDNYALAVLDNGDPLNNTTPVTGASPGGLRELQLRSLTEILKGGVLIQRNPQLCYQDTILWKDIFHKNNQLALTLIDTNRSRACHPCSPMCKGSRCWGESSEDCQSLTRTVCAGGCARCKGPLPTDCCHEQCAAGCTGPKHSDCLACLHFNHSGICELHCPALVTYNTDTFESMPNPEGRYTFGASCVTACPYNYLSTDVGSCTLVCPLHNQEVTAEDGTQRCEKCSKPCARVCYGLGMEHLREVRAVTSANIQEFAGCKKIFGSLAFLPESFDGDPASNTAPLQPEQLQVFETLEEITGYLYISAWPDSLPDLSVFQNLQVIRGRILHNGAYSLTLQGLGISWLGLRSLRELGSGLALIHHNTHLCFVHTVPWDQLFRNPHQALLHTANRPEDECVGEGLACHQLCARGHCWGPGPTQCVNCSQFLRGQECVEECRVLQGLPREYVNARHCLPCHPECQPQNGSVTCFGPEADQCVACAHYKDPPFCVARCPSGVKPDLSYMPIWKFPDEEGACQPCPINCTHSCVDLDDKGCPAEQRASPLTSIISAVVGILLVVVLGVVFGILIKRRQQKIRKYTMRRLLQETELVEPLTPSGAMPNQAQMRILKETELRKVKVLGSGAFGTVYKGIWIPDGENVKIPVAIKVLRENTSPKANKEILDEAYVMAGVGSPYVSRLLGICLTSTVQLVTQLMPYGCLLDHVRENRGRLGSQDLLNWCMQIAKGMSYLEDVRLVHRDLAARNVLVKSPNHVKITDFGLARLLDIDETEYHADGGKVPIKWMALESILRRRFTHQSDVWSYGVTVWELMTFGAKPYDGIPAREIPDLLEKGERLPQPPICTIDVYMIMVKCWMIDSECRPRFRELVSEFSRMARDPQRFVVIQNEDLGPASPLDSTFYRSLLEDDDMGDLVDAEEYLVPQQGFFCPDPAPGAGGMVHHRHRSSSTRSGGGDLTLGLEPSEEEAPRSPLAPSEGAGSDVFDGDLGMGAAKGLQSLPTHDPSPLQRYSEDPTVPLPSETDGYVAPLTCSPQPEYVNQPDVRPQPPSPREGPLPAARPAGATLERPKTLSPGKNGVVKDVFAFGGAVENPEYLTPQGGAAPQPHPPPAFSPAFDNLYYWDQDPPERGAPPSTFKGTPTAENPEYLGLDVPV
Proto-oncogene tyrosine-protein kinase Src (Homo sapiens), sequence (P12931 2-536 limits assumed): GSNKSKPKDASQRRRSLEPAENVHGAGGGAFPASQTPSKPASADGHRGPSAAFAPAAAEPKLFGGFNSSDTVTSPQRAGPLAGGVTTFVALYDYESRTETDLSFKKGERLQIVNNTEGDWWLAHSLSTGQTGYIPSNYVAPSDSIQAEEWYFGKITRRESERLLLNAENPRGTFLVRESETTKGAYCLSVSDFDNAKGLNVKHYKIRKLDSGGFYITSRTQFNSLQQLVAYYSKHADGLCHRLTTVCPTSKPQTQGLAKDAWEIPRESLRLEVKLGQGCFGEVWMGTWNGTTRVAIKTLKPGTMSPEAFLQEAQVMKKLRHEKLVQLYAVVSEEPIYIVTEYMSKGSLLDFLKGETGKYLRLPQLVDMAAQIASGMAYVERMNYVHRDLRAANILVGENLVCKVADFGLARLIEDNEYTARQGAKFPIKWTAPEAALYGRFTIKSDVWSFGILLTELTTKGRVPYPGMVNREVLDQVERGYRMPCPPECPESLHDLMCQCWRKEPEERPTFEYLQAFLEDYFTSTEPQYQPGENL

Row | inhibition [1] | Ki [2] | inhibition [3] | inhibition [4] | inhibition [5] | inhibition [6] | Kd [7] | SMILES
1 | Active |  |  |  |  |  |  | Cc1ccc(-c2nn(C(C)(C)C)c3ncnc(N)c23)cc1
2 |  | 3.1 µM | inactive | inactive | Active | inactive | 2.9 µM | CN(C)c1ccc(/C=C/c2ccc3ncnc(NCc4ccccc4)c3c2)cc1
